Results on eleven compounds are retold here after US12441768B2, “Compositions and methods for treating endometriosis” (EndoMet Biosciences, Inc., priority 2018, dated 2025).

This test deals with T1, β-catenin (Homo sapiens, UniProt P35222).
T1 sequence (P35222 1-781): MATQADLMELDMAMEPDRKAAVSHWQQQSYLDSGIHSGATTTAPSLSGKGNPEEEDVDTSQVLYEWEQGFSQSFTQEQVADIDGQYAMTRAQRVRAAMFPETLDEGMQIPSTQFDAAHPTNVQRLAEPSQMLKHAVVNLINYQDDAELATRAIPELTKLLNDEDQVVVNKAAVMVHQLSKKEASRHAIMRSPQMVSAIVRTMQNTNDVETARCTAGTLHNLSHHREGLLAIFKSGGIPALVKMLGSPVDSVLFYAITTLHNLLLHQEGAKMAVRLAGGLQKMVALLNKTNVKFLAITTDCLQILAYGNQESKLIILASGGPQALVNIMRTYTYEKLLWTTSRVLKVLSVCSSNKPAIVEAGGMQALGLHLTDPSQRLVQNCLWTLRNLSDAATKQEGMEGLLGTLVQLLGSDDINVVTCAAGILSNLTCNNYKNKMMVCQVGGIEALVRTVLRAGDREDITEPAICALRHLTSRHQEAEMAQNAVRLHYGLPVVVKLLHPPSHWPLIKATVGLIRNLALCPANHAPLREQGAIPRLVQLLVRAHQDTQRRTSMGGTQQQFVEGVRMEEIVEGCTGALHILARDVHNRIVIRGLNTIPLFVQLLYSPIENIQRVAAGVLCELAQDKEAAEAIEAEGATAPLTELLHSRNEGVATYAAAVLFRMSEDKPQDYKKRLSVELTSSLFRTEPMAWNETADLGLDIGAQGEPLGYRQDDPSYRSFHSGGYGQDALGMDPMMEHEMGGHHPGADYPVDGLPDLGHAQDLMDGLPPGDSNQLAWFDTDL
The experiment in a line: KD50 measurement using competitive fluorescence polarization (FP) with labelled TCF4. In kind it is binding. The settings on record: fluorescence polarization, β-catenin. In outline: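 5 nM labelled TCF4 was combined with 100 nM β-catenin at room temperature, then inhibitor was titrated in serial dilutions from 10 nM to 30 uM. Polarization was read at excitation 470 nm, emission 520 nm; displacement lowers the signal. Three independent experiments.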
In general terms: Polarisation of emitted light reports the rotation of a fluorescent probe.

Structures are written as SMILES. Where two headings read alike, the source gives them in different places. Where a SMILES comes first, the peptide text is derived from it.

As usually defined, the Kd is the free concentration of one partner at which half of the binding sites on the other are occupied at equilibrium, for simple one-to-one binding.

With `CC[C@H](C)[C@@H]1NC(=O)[C@@H](NC(=O)[C@H](CCC(N)=O)NC(=O)[C@H](C)N(C)C(=O)[C@H](Cc2c[nH]c3ccccc23)NC(C)=O)CCCCNC(=O)CC[C@@H](C(=O)N[C@@H](Cc2c[nH]cn2)C(=O)N[C@H](C(=O)N[C@@H](CCC(N)=O)C(=O)N[C@@H](CCCNC(=N)N)C(=O)N[C@H](C(=O)N[C@@H](Cc2c[nH]c3ccccc23)C(N)=O)C(C)C)C2CCCCC2)NC(=O)[C@H](CC(=O)O)NC(=O)[C@H](CC(C)C)NC1=O` [compound 446] (HELM PEPTIDE1{[ac].W.[meA].Q.K.I.L.D.E.H.[O=C([C@@H](N[*:1])C1CCCCC1)[*:2]].Q.R.V.W.[am]}$PEPTIDE1,PEPTIDE1,5:R3-9:R3$$$V2.0), the “β-Cat FP Hill slope” value was 0.7. Moreover, the Kd (read-out: β-Cat FP KD) is less than 0.4 µM.

Take `CCCCCCCCCCCC(=O)N[C@@H](Cc1c[nH]c2ccccc12)C(=O)N(C)[C@@H](C)C(=O)N[C@@H](CCC(N)=O)C(=O)N[C@H]1CCCCNC(=O)CC[C@@H](C(=O)N[C@@H](Cc2c[nH]cn2)C(=O)N[C@H](C(=O)N[C@@H](CCC(N)=O)C(=O)N[C@@H](CCCNC(=N)N)C(=O)N[C@H](C(=O)N[C@@H](Cc2c[nH]c3ccccc23)C(N)=O)C(C)C)C2CCCCC2)NC(=O)[C@H](CC(=O)O)NC(=O)[C@H](CC(C)C)NC(=O)[C@H]([C@@H](C)CC)NC1=O` [compound 447] (HELM PEPTIDE1{[CCCCCCCCCCCC(=O)[*:2]].W.[meA].Q.K.I.L.D.E.H.[O=C([C@@H](N[*:1])C1CCCCC1)[*:2]].Q.R.V.W.[am]}$PEPTIDE1,PEPTIDE1,5:R3-9:R3$$$V2.0): the Kd (read-out: β-Cat FP KD) was less than 0.4 µM.

With `CC[C@H](C)[C@@H]1NC(=O)[C@H](CO)NC(=O)[C@@H](NC(=O)[C@H](C)N(C)C(=O)[C@H](Cc2c[nH]c3ccccc23)NC(C)=O)CCC(=O)NCCCC[C@@H](C(=O)N[C@@H](CCC(=O)O)C(=O)N[C@@H](Cc2c[nH]cn2)C(=O)N[C@H](C(=O)N[C@@H](CCC(N)=O)C(=O)N[C@@H](CCCNC(=N)N)C(=O)N[C@H](C(=O)N[C@@H](Cc2c[nH]c3ccccc23)C(=O)NCC(N)=O)C(C)C)C(C)C)NC(=O)[C@H](CC(C)C)NC1=O` [compound 450] (HELM PEPTIDE1{[ac].W.[meA].E.S.I.L.K.E.H.V.Q.R.V.W.G.[am]}$PEPTIDE1,PEPTIDE1,4:R3-8:R3$$$V2.0), the “β-Cat FP Hill slope” value turned out to be 0.79. Also, the Kd (read-out: β-Cat FP KD) was in the range of 0.4 to 1 µM.

Take `CCCCCCCCCCCC(=O)N[C@@H](Cc1c[nH]c2ccccc12)C(=O)N(C)[C@@H](C)C(=O)N[C@H]1CCC(=O)NCCCC[C@@H](C(=O)N[C@@H](CCC(=O)O)C(=O)N[C@@H](Cc2c[nH]cn2)C(=O)N[C@H](C(=O)N[C@@H](CCC(N)=O)C(=O)N[C@@H](CCCNC(=N)N)C(=O)N[C@H](C(=O)N[C@@H](Cc2c[nH]c3ccccc23)C(=O)NCC(N)=O)C(C)C)C(C)C)NC(=O)[C@H](CC(C)C)NC(=O)[C@H]([C@@H](C)CC)NC(=O)[C@H](CO)NC1=O` [compound 451] (HELM PEPTIDE1{[CCCCCCCCCCCC(=O)[*:2]].W.[meA].E.S.I.L.K.E.H.V.Q.R.V.W.G.[am]}$PEPTIDE1,PEPTIDE1,4:R3-8:R3$$$V2.0): for the setting “read-out: β-Cat FP KD”, the Kd lay in the range of 1 to 10 µM.

Turning to `CCCCCCCCCCCC(=O)N[C@@H](Cc1c[nH]c2ccccc12)C(=O)N(C)[C@@H](C)C(=O)N[C@@H](CCC(N)=O)C(=O)N[C@H]1CCCCNC(=O)C[C@@H](C(=O)N[C@@H](Cc2c[nH]cn2)C(=O)N[C@H](C(=O)N[C@@H](CCC(N)=O)C(=O)N[C@@H](C)C(=O)N[C@H](C(N)=O)C(C)C)C2CCCCC2)NC(=O)[C@H](CC(N)=O)NC(=O)[C@H](CC(C)C)NC(=O)[C@H]([C@@H](C)CC)NC1=O` [compound 453] (HELM PEPTIDE1{[CCCCCCCCCCCC(=O)[*:2]].W.[meA].Q.K.I.L.N.D.H.[O=C([C@@H](N[*:1])C1CCCCC1)[*:2]].Q.A.V.[am]}$PEPTIDE1,PEPTIDE1,5:R3-9:R3$$$V2.0), the Kd (β-Cat FP KD) is 1 to 10 µM.

Take `CCCCCCCCCCCCCCCC(=O)N[C@@H](Cc1c[nH]c2ccccc12)C(=O)N(C)[C@@H](C)C(=O)N[C@@H](CCC(N)=O)C(=O)N[C@H]1CCCCNC(=O)C[C@@H](C(=O)N[C@@H](Cc2c[nH]cn2)C(=O)N[C@H](C(=O)N[C@@H](CCC(N)=O)C(=O)N[C@@H](C)C(=O)N[C@H](C(N)=O)C(C)C)C2CCCCC2)NC(=O)[C@H](CC(N)=O)NC(=O)[C@H](CC(C)C)NC(=O)[C@H]([C@@H](C)CC)NC1=O` [compound 454] (HELM PEPTIDE1{[CCCCCCCCCCCCCCCC(=O)[*:2]].W.[meA].Q.K.I.L.N.D.H.[O=C([C@@H](N[*:1])C1CCCCC1)[*:2]].Q.A.V.[am]}$PEPTIDE1,PEPTIDE1,5:R3-9:R3$$$V2.0): under “β-Cat FP KD”, the Kd lay in the range of 1 to 10 µM.

As to `CC[C@H](C)[C@@H]1NC(=O)[C@@H](NC(=O)[C@H](CCC(N)=O)NC(=O)C(C)(C)NC(=O)[C@H](Cc2c[nH]c3ccccc23)NC(C)=O)CCCCNC(=O)C[C@@H](C(=O)N[C@@H](Cc2c[nH]cn2)C(=O)N[C@H](C(=O)N[C@@H](CCC(N)=O)C(=O)N[C@@H](CCCNC(=N)N)C(=O)N[C@H](C(=O)N[C@@H](Cc2c[nH]c3ccccc23)C(N)=O)C(C)C)C2CCCCC2)NC(=O)[C@H](CC(N)=O)NC(=O)[C@H](CC(C)C)NC1=O` [compound 455] (HELM PEPTIDE1{[ac].W.[Aib].Q.K.I.L.N.D.H.[O=C([C@@H](N[*:1])C1CCCCC1)[*:2]].Q.R.V.W.[am]}$PEPTIDE1,PEPTIDE1,5:R3-9:R3$$$V2.0), the “β-Cat FP Hill slope” value stood at 1.03. The Kd (read-out: β-Cat FP KD) was less than 0.4 µM.

Take `CC[C@H](C)[C@@H]1NC(=O)[C@@H](NC(=O)[C@H](CCC(N)=O)NC(=O)[C@H](C)N(C)C(=O)[C@H](Cc2c[nH]c3ccccc23)NC(C)=O)CCCCNC(=O)C[C@@H](C(=O)N[C@@H](Cc2c[nH]cn2)C(=O)N[C@H](C(=O)N[C@@H](CCC(N)=O)C(=O)N[C@@H](C)C(=O)N[C@H](C(=O)N[C@@H](Cc2c[nH]c3ccccc23)C(N)=O)C(C)C)C2CCCCC2)NC(=O)[C@H](CC(N)=O)NC(=O)[C@H](CC(C)C)NC1=O` [compound 458] (HELM PEPTIDE1{[ac].W.[meA].Q.K.I.L.N.D.H.[O=C([C@@H](N[*:1])C1CCCCC1)[*:2]].Q.A.V.W.[am]}$PEPTIDE1,PEPTIDE1,5:R3-9:R3$$$V2.0): the “β-Cat FP Hill slope” value was 0.7. Moreover, the Kd (read-out: β-Cat FP KD) fell in the range of 0.4 to 1 µM.

With `CCCCCCCCCCCC(=O)N[C@@H](Cc1c[nH]c2ccccc12)C(=O)N(C)[C@@H](C)C(=O)N[C@@H](CCC(N)=O)C(=O)N[C@H]1CCCCNC(=O)C[C@@H](C(=O)N[C@@H](Cc2c[nH]cn2)C(=O)N[C@H](C(=O)N[C@@H](CCC(N)=O)C(=O)N[C@@H](C)C(=O)N[C@H](C(=O)N[C@@H](Cc2c[nH]c3ccccc23)C(N)=O)C(C)C)C2CCCCC2)NC(=O)[C@H](CC(N)=O)NC(=O)[C@H](CC(C)C)NC(=O)[C@H]([C@@H](C)CC)NC1=O` [compound 459] (HELM PEPTIDE1{[CCCCCCCCCCCC(=O)[*:2]].W.[meA].Q.K.I.L.N.D.H.[O=C([C@@H](N[*:1])C1CCCCC1)[*:2]].Q.A.V.W.[am]}$PEPTIDE1,PEPTIDE1,5:R3-9:R3$$$V2.0), the equilibrium dissociation constant (Kd) (read-out: β-Cat FP KD) is less than 0.4 µM.

On to `CC[C@H](C)[C@H](NC(=O)[C@H](CO)NC(=O)[C@H](CCC(N)=O)NC(=O)[C@H](C)N(C)C(=O)[C@H](Cc1c[nH]c2ccccc12)NC(C)=O)C(=O)N[C@@H](CC(C)C)C(=O)N[C@@H](CC(=O)O)C(=O)N[C@H]1CCCCNC(=O)C[C@@H](C(=O)N[C@H](C(=O)N[C@@H](Cc2c[nH]c3ccccc23)C(N)=O)C(C)C)NC(=O)[C@H](CCC(N)=O)NC(=O)[C@H](C2CCCCC2)NC(=O)[C@H](Cc2c[nH]cn2)NC1=O` [compound 460] (HELM PEPTIDE1{[ac].W.[meA].Q.S.I.L.D.K.H.[O=C([C@@H](N[*:1])C1CCCCC1)[*:2]].Q.D.V.W.[am]}$PEPTIDE1,PEPTIDE1,9:R3-13:R3$$$V2.0), for which the “β-Cat FP Hill slope” value was 0.7. Under “read-out: β-Cat FP KD”, the Kd is less than 0.4 µM.

For the compound `CCCCCCCCCCCC(=O)N[C@@H](Cc1c[nH]c2ccccc12)C(=O)N(C)[C@@H](C)C(=O)N[C@@H](CCC(N)=O)C(=O)N[C@@H](CO)C(=O)N[C@H](C(=O)N[C@@H](CC(C)C)C(=O)N[C@@H](CC(=O)O)C(=O)N[C@H]1CCCCNC(=O)C[C@@H](C(=O)N[C@H](C(=O)N[C@@H](Cc2c[nH]c3ccccc23)C(N)=O)C(C)C)NC(=O)[C@H](CCC(N)=O)NC(=O)[C@H](C2CCCCC2)NC(=O)[C@H](Cc2c[nH]cn2)NC1=O)[C@@H](C)CC` [compound 461] (HELM PEPTIDE1{[CCCCCCCCCCCC(=O)[*:2]].W.[meA].Q.S.I.L.D.K.H.[O=C([C@@H](N[*:1])C1CCCCC1)[*:2]].Q.D.V.W.[am]}$PEPTIDE1,PEPTIDE1,9:R3-13:R3$$$V2.0), where the note is “read-out: β-Cat FP KD”, the Kd was less than 0.4 µM.
